For 33 compounds, IC50 results are on record in US9278981B2, “Compounds and compositions for inhibiting the activity of ABL1, ABL2 and BCR-ABL1” (Novartis AG, priority 2012, dated 2016).

As a reminder, the IC50 is the concentration that inhibits the measured activity by half.

The target of the first test is T1, ABL1 (64-515) (Homo sapiens (Human), UniProt P00519). Description: Radio ABL1 (64-515) assay (radiometric filter-binding). In kind it is biochemical.
T1 sequence (P00519 64-515): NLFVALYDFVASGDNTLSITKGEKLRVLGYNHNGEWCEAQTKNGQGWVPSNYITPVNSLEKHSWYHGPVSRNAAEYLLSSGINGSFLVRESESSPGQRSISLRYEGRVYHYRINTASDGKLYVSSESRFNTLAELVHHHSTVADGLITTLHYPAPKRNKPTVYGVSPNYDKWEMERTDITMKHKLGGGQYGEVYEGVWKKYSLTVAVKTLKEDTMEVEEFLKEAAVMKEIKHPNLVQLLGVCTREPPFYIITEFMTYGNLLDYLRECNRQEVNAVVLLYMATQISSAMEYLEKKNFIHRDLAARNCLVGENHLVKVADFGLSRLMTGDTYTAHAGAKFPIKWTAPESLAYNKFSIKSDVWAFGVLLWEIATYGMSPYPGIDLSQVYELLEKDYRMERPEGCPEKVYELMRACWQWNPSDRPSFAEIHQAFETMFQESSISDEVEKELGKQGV
Conditions: not given
`CN[C@@H]1CCN(c2ncc(C(=O)Nc3ccc(OC(F)(F)F)cc3)cc2-c2ccc(C)nc2)C1` [Example 101, (R)-6′-Methyl-2-(3-(methylamino)pyrrolidin-1-yl)-N-(4-(trifluoromethoxy)phenyl)-[3,3′-bipyridine]-5-carboxamide]: the half-maximal inhibitory concentration (IC50) is under 3 nM.
`CN[C@H]1CCN(c2ncc(C(=O)Nc3ccc(OC(F)(F)F)cc3)cc2-c2cccnc2)C1` [Example 103, (S)-2-(3-(Methylamino)pyrrolidin-1-yl)-N-(4-(trifluoromethoxy)phenyl)-[3,3′-bipyridine]-5-carboxamide] displayed an IC50 of under 3 nM.
Compound `CN[C@H]1CCN(c2ncc(C(=O)Nc3ccc(OC(F)(F)F)cc3)cc2-c2ccc(C)nc2)C1` [Example 104, (S)-6′-Methyl-2-(3-(methylamino)pyrrolidin-1-yl)-N-(4-(trifluoromethoxy)phenyl)-[3,3′-bipyridine]-5-carboxamide] had an IC50 of 3 nM.
The compound `NC[C@H]1CCN(c2ncc(C(=O)Nc3ccc(OC(F)(F)F)cc3)cc2-c2cccnc2)C1` [Example 106, (R)-2-(3-(Aminomethyl)pyrrolidin-1-yl)-N-(4-(trifluoromethoxy)phenyl)-[3,3′-bipyridine]-5-carboxamide] came in with an IC50 of under 3 nM.
The compound `Cc1ccc(-c2cc(C(=O)Nc3ccc(OC(F)(F)F)cc3)cnc2N2CC[C@H](CN)C2)cn1` [Example 107, (R)-2-(3-(Aminomethyl)pyrrolidin-1-yl)-6′-methyl-N-(4-(trifluoromethoxy)phenyl)-[3,3′-bipyridine]-5-carboxamide] registered an IC50 of under 3 nM.
`NC[C@@H]1CCN(c2ncc(C(=O)Nc3ccc(OC(F)(F)F)cc3)cc2-c2cccnc2)C1` [Example 109, (S)-2-(3-(Aminomethyl)pyrrolidin-1-yl)-N-(4-(trifluoromethoxy)phenyl)-[3,3′-bipyridine]-5-carboxamide]: the IC50 is under 3 nM.
Still for that read-out and setting: next, `Cc1ccc(-c2cc(C(=O)Nc3ccc(OC(F)(F)F)cc3)cnc2N2CC[C@@H](CN)C2)cn1` [Example 110, (S)-2-(3-(Aminomethyl)pyrrolidin-1-yl)-6′-methyl-N-(4-(trifluoromethoxy)phenyl)-[3,3′-bipyridine]-5-carboxamide]: 5 nM; `COc1ccc(-c2cc(C(=O)Nc3ccc(OC(F)(F)F)cc3)cnc2N2CC[C@@H](CN)C2)cn1` [Example 111, (S)-2-(3-(Aminomethyl)pyrrolidin-1-yl)-6′-methoxy-N-(4-(trifluoromethoxy)phenyl)-[3,3′-bipyridine]-5-carboxamide]: under 3 nM.
For the compound `CN(C)C1CCN(c2ncc(C(=O)Nc3ccc(OC(F)(F)F)cc3)cc2-c2cncnc2)C1` (stereo not drawn) [Example 112, 6-(3-(Dimethylamino)pyrrolidin-1-yl)-5-(pyrimidin-5-yl)-N-(4-(trifluoromethoxy)phenyl)nicotinamide], the IC50 was under 3 nM.
Still for that read-out and setting: in the case of `CC(C)(O)C1CCN(c2ncc(C(=O)Nc3ccc(OC(F)(F)F)cc3)cc2-c2cccnc2)C1` (stereo not drawn) [Example 114, 2-(3-(2-Hydroxypropan-2-yl)pyrrolidin-1-yl)-N-(4-(trifluoromethoxy)phenyl)-[3,3′-bipyridine]-5-carboxamide] it was 6 nM.
`Cc1ccc(-c2cc(C(=O)Nc3ccc(OC(F)(F)F)cc3)cnc2N2CCC(C(C)(C)O)C2)cn1` (stereo not drawn) [Example 115, 2-(3-(2-Hydroxypropan-2-yl)pyrrolidin-1-yl)-6′-methyl-N-(4-(trifluoromethoxy)phenyl)-[3,3′-bipyridine]-5-carboxamide] displayed an IC50 of 16 nM.
`CC1(O)CN(c2ncc(C(=O)Nc3ccc(OC(F)(F)F)cc3)cc2-c2cnc(Cl)c(F)c2)C1` [Example 134, 6′-Chloro-5′-fluoro-2-(3-hydroxy-3-methylazetidin-1-yl)-N-(4-(trifluoromethoxy)phenyl)-[3,3′-bipyridine]-5-carboxamide] had a half-maximal inhibitory concentration (IC50) of 10 nM.
With `Cc1ncc(-c2cc(C(=O)Nc3ccc(OC(F)(F)F)cc3)cnc2N2CC(CO)C2)cn1` [Example 136, 6-(3-(Hydroxymethyl)azetidin-1-yl)-5-(2-methylpyrimidin-5-yl)-N-(4-(trifluoromethoxy)phenyl)nicotinamide], the IC50 was under 3 nM.
For the compound `O=C(Nc1ccc(OC(F)(F)F)cc1)c1cnc(N2CC(CO)C2)c(-c2cnc(Cl)c(F)c2)c1` [Example 141, 6′-Chloro-5′-fluoro-2-(3-(hydroxymethyl)azetidin-1-yl)-N-(4-(trifluoromethoxy)phenyl)-[3,3′-bipyridine]-5-carboxamide], the IC50 was determined as 6 nM.
Same read-out and setting: in the case of `O=C(Nc1ccc(OC(F)(F)F)cc1)c1cnc(N2CCCNCC2)c(-c2cccnc2)c1` [Example 145, 2-(1,4-Diazepan-1-yl)-N-(4-(trifluoromethoxy)phenyl)-[3,3′-bipyridine]-5-carboxamide] it was 4 nM.
`CN1CCCN(c2ncc(C(=O)Nc3ccc(OC(F)(F)F)cc3)cc2-c2cccnc2)CC1` [Example 146, 2-(4-Methyl-1,4-diazepan-1-yl)-N-(4-(trifluoromethoxy)phenyl)-[3,3′-bipyridine]-5-carboxamide] came in with an IC50 of under 3 nM.
On the same count and under the same terms, in the case of `Cc1ccc(-c2cc(C(=O)Nc3ccc(OC(F)(F)F)cc3)cnc2N2CCCN(C)CC2)cn1` [Example 147, 6′-Methyl-2-(4-methyl-1,4-diazepan-1-yl)-N-(4-(trifluoromethoxy)phenyl)-[3,3′-bipyridine]-5-carboxamide] it was under 3 nM; in that of `Cc1ccc(-c2cc(C(=O)Nc3ccc(OC(F)(F)F)cc3)cnc2N(C)CCO)cn1` [Example 153, 2-((2-Hydroxyethyl)(methyl)amino)-6′-methyl-N-(4-(trifluoromethoxy)phenyl)-[3,3′-bipyridine]-5-carboxamide], under 3 nM; in that of `O=C(Nc1ccc(OC(F)(F)F)cc1)c1cnc(NCCO)c(-c2cccnc2)c1` [Example 159, 2-((2-Hydroxyethyl)amino)-N-(4-(trifluoromethoxy)phenyl)-[3,3′-bipyridine]-5-carboxamide], under 3 nM.
For the compound `Cc1ccc(-c2cc(C(=O)Nc3ccc(OC(F)(F)F)cc3)cnc2NCCO)cn1` [Example 160, 2-((2-Hydroxyethyl)amino)-6′-methyl-N-(4-(trifluoromethoxy)phenyl)-[3,3′-bipyridine]-5-carboxamide], the IC50 was under 3 nM.
`Cc1ccc(-c2cc(C(=O)Nc3ccc(OC(F)(F)F)cc3)cnc2NCCCO)cn1` [Example 163, 2-((3-Hydroxypropyl)amino)-6′-methyl-N-(4-(trifluoromethoxy)phenyl)-[3,3′-bipyridine]-5-carboxamide]: the IC50 is under 3 nM.
The compound `COc1ccc(-c2cc(C(=O)Nc3ccc(OC(F)(F)F)cc3)cnc2NCCCO)cn1` [Example 164, 2-((3-Hydroxypropyl)amino)-6′-methoxy-N-(4-(trifluoromethoxy)phenyl)-[3,3′-bipyridine]-5-carboxamide] returned an IC50 of 12 nM.
Turning to `CN(CCCO)c1ncc(C(=O)Nc2ccc(OC(F)(F)F)cc2)cc1-c1cncnc1` [Example 165, 6-((3-Hydroxypropyl)(methyl)amino)-5-(pyrimidin-5-yl)-N-(4-(trifluoromethoxy)phenyl)nicotinamide], the IC50 is under 3 nM.
Still for that read-out and setting: in the case of `Cc1ccc(-c2cc(C(=O)Nc3ccc(OC(F)(F)F)cc3)cnc2N(C)CCCO)cn1` [Example 167, 2-((3-Hydroxypropyl)(methyl)amino)-6′-methyl-N-(4-(trifluoromethoxy)phenyl)-[3,3′-bipyridine]-5-carboxamide] it was 30 nM; in that of `CN(C)CCCN(C)c1ncc(C(=O)Nc2ccc(OC(F)(F)F)cc2)cc1-c1cccnc1` [Example 168, 2-((3-(Dimethylamino)propyl)(methyl)amino)-N-(4-(trifluoromethoxy)phenyl)-[3,3′-bipyridine]-5-carboxamide], under 3 nM.
Take `O=C(Nc1ccc(OC(F)(F)F)cc1)c1cnc(N2CC[C@@H](O)C2)c(-c2cncc(C(F)(F)F)c2)c1` [Example 234, (R)-2-(3-Hydroxypyrrolidin-1-yl)-N-(4-(trifluoromethoxy)phenyl)-5′-(trifluoromethyl)-[3,3′-bipyridine]-5-carboxamide]: the IC50 was found to be 19 nM.

For another test, the target named is T1, ABL1 (64-515). Kind of test: Caliper ABL1 (64-515) assay (microfluidic mobility shift). Format: biochemical.
Conditions: not given
As to `NC12CC1CN(c1ncc(C(=O)Nc3ccc(OC(F)(F)F)cc3)cc1-c1cncnc1)C2` (stereo not drawn) [Example 226, 6-(1-Amino-3-azabicyclo[3.1.0]hexan-3-yl)-5-(pyrimidin-5-yl)-N-(4-(trifluoromethoxy)phenyl)nicotinamide], the IC50 came out at 1.9 nM.
On to `O=C(Nc1ccc(OC(F)(F)F)cc1)c1cnc(N2CC3CN(CCO)CC3C2)c(-c2cncnc2)c1` (stereo not drawn) [Example 281, 6-(5-(2-Hydroxyethyl)hexahydropyrrolo[3,4-c]pyrrol-2(1H)-yl)-5-(pyrimidin-5-yl)-N-(4-(trifluoromethoxy)phenyl)nicotinamide], for which the IC50 was 11 nM.
Same read-out and setting: next, `N#Cc1ccc(F)cc1-c1cc(C(=O)Nc2ccc(OC(F)(F)Cl)cc2)cnc1N1CC[C@@H](O)C1` [Example 287, (R)—N-(4-(Chlorodifluoromethoxy)phenyl)-5-(2-cyano-5-fluorophenyl)-6-(3-hydroxypyrrolidin-1-yl)nicotinamide]: 1.5 nM; `O=C(Nc1ccc(OC(F)(F)Cl)cc1)c1cnc(N2CC[C@@H](O)C2)c(-c2cc(F)cnc2Cl)c1` [Example 288, (R)-2′-Chloro-N-(4-(chlorodifluoromethoxy)phenyl)-5′-fluoro-2-(3-hydroxypyrrolidin-1-yl)-[3,3′-bipyridine]-5-carboxamide]: 1 nM; `Cc1ccncc1-c1cc(C(=O)Nc2ccc(OC(F)(F)Cl)cc2)cnc1N1CC[C@@H](O)C1` [Example 291, (R)—N-(4-(Chlorodifluoromethoxy)phenyl)-2-(3-hydroxypyrrolidin-1-yl)-4′-methyl-[3,3′-bipyridine]-5-carboxamide]: 0.2 nM.

The test is the same for the next values; noted with them: comparison of ortho substitution on the R3/R4 ring.
With `O=C(Nc1ccc(OC(F)(F)F)cc1Cl)c1cnc(N2CC[C@@H](O)C2)c(-c2cncnc2)c1`, the IC50 was determined as 850 nM.
Still for that read-out and setting: next, `O=C(Nc1c(Cl)cc(OC(F)(F)F)cc1Cl)c1cnc(N2CC[C@@H](O)C2)c(-c2cncnc2)c1`: over 10000 nM.
